Patent US12565485B2, “Solid forms of 1-((S)-4-((R)-7-(6-amino-4-methyl-3-(trifluoromethyl)pyridin-2-yl)-6-chloro-8-fluoro-2-(((s)-1-methylpyrrolidin-2-yl)methoxy)quinazolin-4-yl)-3-methylpiperazin-1-yl)prop-2-en-1-one” (Genentech, Inc., priority 2022, dated 2026)

Assays:
Assay type in all cases: physicochemical
[1] = VH-XRPD analysis / transitions of forms at varying relative humidity; settings: ambient humidity levels 40%
Text: FIG. 19. The sample then reverts to the original form upon reaching 30% RH. […] Transitions of Forms of Compound A at varying RH.

[2] = Heating under N2 protection (VT-XRPD), form change; settings: heating to 100° C. under N2 protection, cooled down and exposed to ambient conditions; listed as adipate Type A
Experimental: Compound B Form A was obtained from an acetone system and the sample was air dried at RT. […] (peak temperature) before the possible overlapped peak with peak temperature at 156.3° C. (FIG. 12). Based on the integrals, the stoichiometric ratio of fumaric acid:freebase was determined to be 1.03. A peak of acetone was observed and approximately 0.49 molar acetone (4.4 wt %) was detected. The HPLC purity of Compound B Form A was determined to be 93.56 area %. […] Around 0.39 molar acetone (3.5 wt %) was still detected. One endotherm at 58.7° C. and an overlapped peak with peak temperature at 157.1° C. were still observed on the sample obtained after heating. The first endotherm might be caused by re-adsorption of moisture. Since ˜3.5 wt % acetone was still detected from NMR, Compound B Form A is expected to be an acetone/H2O co-solvate. […]

[3] = Form change before and after drying (XRPD)
Experimental: The wet sample was vacuum dried at RT for 3 hrs. […] A solid was obtained with a yield of 62.2%. […] (peak temperature). Based on the integrals in NMR spectrum, the stoichiometric ratio of adipic acid:freebase was determined to be 1.06. A peak of EtOAc was observed. Around 0.07 molar EtOAc (0.8 wt %) was detected, which was consistent with TGA weight loss.
(peak), and one small endotherm at 158.8° C. […] Based on the integrals, the stoichiometric ratio of adipic acid:freebase was determined to be 1.65.
(peak temperature). Based on the integrals, the stoichiometric ratio of adipic acid:freebase was determined to be 1.06. Peak of THF was observed. Around 0.17 molar THF (1.9 wt %) was detected, which was consistent with TGA weight loss.
Compound B Form A was obtained from an acetone system and the sample was air dried at RT. […] (peak temperature) before the possible overlapped peak with peak temperature at 156.3° C. (FIG. 12). Based on the integrals, the stoichiometric ratio of fumaric acid:freebase was determined to be 1.03. A peak of acetone was observed and approximately 0.49 molar acetone (4.4 wt %) was detected. The HPLC purity of Compound B Form A was determined to be 93.56 area %. […] Around 0.39 molar acetone (3.5 wt %) was still detected. One endotherm at 58.7° C. and an overlapped peak with peak temperature at 157.1° C. were still observed on the sample obtained after heating. The first endotherm might be caused by re-adsorption of moisture. Since ˜3.5 wt % acetone was still detected from NMR, Compound B Form A is expected to be an acetone/H2O co-solvate.
Compound C Form A was obtained from EtOAc system and the sample was air dried at RT. […] HPLC purity of Compound C Form A was determined to be 95.18 area %.

[4] = Liquid vapor diffusion; settings: Compound A, RT
Experimental: (§1) Liquid vapor diffusion. Liquid vapor diffusion experiments were conducted in different solvent systems. […] This solution was then placed into a 20-mL vial with 3 mL of corresponding anti-solvent. The 20-mL vial was sealed with a cap and kept at RT allowing sufficient time for organic vapor to interact with the solution. The precipitates were isolated for XRPD analysis.
as §1, with “diffusion Compound A.” for “diffusion.”

[5] = Slow evaporation; settings: Compound A, evaporation at RT
Experimental: Slow evaporation. Slow evaporation experiments were performed under 10 conditions. Briefly, about 15˜20 mg of freebase starting material (810935-01-A) was dissolved in 0.5˜1.0 mL of solvent in a 3-mL glass vial.
Slow evaporation Compound A. Slow evaporation experiments were performed under seven conditions.

[6] = Anti-solvent addition; settings: Compound A
Experimental: Anti-solvent addition. A total of 12 anti-solvent addition experiments were carried out. […] The obtained precipitate was isolated for XRPD analysis.
Anti-solvent addition Compound A. A total of 14 anti-solvent addition experiments were carried out. […] The obtained precipitate was isolated for XRPD analysis.

[7] = Slow cooling; settings: Compound A, 50° C. to 5° C. at 0.1° C./min
Experimental: Slow cooling Compound A. Slow cooling experiments were conducted in four solvent systems. […] The suspension was then heated to 50° C., equilibrated for about 2 hr and filtered to a new vial using a seal membrane (PTFE, pore size of 0.45 μm). Filtrates were slowly cooled down to 5° C. at a rate of 0.1° C./min. The obtained solids were kept isothermal at 5° C. before isolation for XRPD analysis.

[8] = solvent DMSO, anti-solvent EtOAc
[9] = solvent EtOH, anti-solvent MTBE
[10] = solvent THF, anti-solvent n-Heptane

- Form after exposure to ambient humidity [1]: Compound A Form D was formed
- Form change before and after drying ([3]; air dried at RT): No form change was observed
- Form change before and after drying ([3]; vacuum dried at RT for 3 hrs): No form change was observed
- Result [4, 8]: Clear solution
- Result [4, 9]: Gel
- Result ([4]; solvent EtOH, anti-solvent n-Pentane): Gel
- Result ([4]; solvent H2O, anti-solvent ACN): Gel
- Result ([4]; solvent H2O, anti-solvent IPA): Gel
- Result ([4]; solvent THF, anti-solvent MTBE): Gel
- Result [4, 10]: Amorphous
- Result ([5]; 2-MeTHF): Gel
- Result ([5]; Acetone): Gel
- Result ([5]; DCM): Gel
- Result ([5]; EtOH): Gel
- Result ([5]; H2O): Clear solution
- Result ([5]; MeOH): Gel
- Result ([5]; THF): Gel
- Result ([6]; solvent 2-MeTHF, anti-solvent n-Heptane): Gel
- Result ([6]; solvent DCM, anti-solvent MTBE): Compound A Form A
- Result ([6]; solvent DCM, anti-solvent Toluene): Compound A Form B
- Result ([6]; solvent DCM, anti-solvent n-Heptane): Compound A Form A
- Result [6, 8]: Clear
- Result ([6]; solvent EtOH, anti-solvent Anisole): Clear solution
- Result [6, 9]: Gel
- Result ([6]; solvent EtOH, anti-solvent n-Heptane): Compound A Form A
- Result ([6]; solvent MeOH, anti-solvent MTBE): Gel
- Result ([6]; solvent MeOH, anti-solvent Toluene): Compound A Form A
- Result ([6]; solvent THF, anti-solvent EtOAc): Compound A Form A
- Result ([6]; solvent THF, anti-solvent MTBE): Compound A Form A
- Result ([6]; solvent THF, anti-solvent Toluene): Compound A Form A
- Result [6, 10]: Compound A Form A
- Result ([7]; ACN): Compound A Form A
- Result ([7]; Acetone): Compound A Form A
- Result ([7]; IPA): Compound A Form A
- Result ([7]; MEK): Compound A Form A
Compound: C=CC(=O)N1CCN(c2nc(OC[C@@H]3CCCN3C)nc3c(F)c(-c4nc(N)cc(C)c4C(F)(F)F)c(Cl)cc23)[C@@H](C)C1 [Compound A Form A]
- Form change after heating [2]: very slight differences were observed before and after heating
